The values that follow come from article PMC3711795 (Nature, 2012).

The target in experiment [1] is T1, HSC / FNT3 (hydrosulfide ion channel) (Clostridioides difficile, UniProt Q186B7).
T1 sequence (Q186B7 2-258): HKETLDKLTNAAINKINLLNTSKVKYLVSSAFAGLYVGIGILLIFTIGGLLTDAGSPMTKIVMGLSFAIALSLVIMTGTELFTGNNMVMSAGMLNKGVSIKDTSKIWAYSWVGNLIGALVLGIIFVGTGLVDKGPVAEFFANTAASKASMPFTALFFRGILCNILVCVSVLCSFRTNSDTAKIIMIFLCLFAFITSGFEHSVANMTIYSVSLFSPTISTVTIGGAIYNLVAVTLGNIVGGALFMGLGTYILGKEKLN
Conditions: 450 µM 14C-formate; pH 8.0; competing permeant anion, competitive.

Experiment [2] has as its target hydrosulfide ion channel (HSC) from Clostridium difficile (Clostridium difficile strain 630). The experiment can be described thus: crystal structure.

For `S` [HS^−], the “% inhibition at 15 mM” value in experiment [1] stood at 90%.

In the case of `O=NO` [nitrite], the “% inhibition at 15 mM” value in experiment [1] is given as 70%.

Take “hydrosulfide ion channel (HSC) from Clostridium difficile (natural protein)”: the stoichiometry N in experiment [2] was determined as 5.
